Data reported in patent US20230085307A1, “PYRIDAZINONE COMPOUND AND HERBICIDE” (NISSAN CHEMICAL CORPORATION, priority 2019, published 2023).

What was measured:
lambsquarters [1] = test: Test Example 4: herbicidal effect by soil treatment (Table 19, symbol O); assay type: in vivo, lambsquarters (Chenopodium album)
In short: (§1)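 In this soil treatment, the formulated compound reached the seeds only through the soil: seeds were buried about 1.5 cm deep in sterilized diluvial soil, then the diluted emulsion was sprayed over the surface. After three weeks at 25° C. to 30° C. in a greenhouse, effects were graded on criteria from an earlier test.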

Italian ryegrass [2] = test: Test Example 4: herbicidal effect by soil treatment (Table 19, symbol K); assay type: in vivo, Italian ryegrass (Lolium multiflorum)
In short: as §1

persian speedwell [3] = test: Test Example 4: herbicidal effect by soil treatment (Table 19, symbol R); assay type: in vivo, Persian speedwell (Veronica persica)
In short: as §1

persian speedwell [4] = test: Test Example 5: herbicidal effect by foliage application, plastic box (Table 20, symbol R); assay type: in vivo, Persian speedwell (Veronica persica)
In short: (§2)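 Plants were sown into sterilized diluvial soil under about 1.5 cm cover and kept in a greenhouse at 25° C. to 30° C. Fourteen days on, foliage received an even spray of the diluted emulsion. Herbicidal or crop effect was judged three weeks afterwards.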

blackgrass [5] = test: Test Example 5: herbicidal effect by foliage application, plastic box (Table 20, symbol J); assay type: in vivo, blackgrass (Alopecurus myosuroides)
In short: as §2

velvetleaf [6] = test: Test Example 5: herbicidal effect by foliage application, plastic box (Table 20, symbol M); assay type: in vivo, velvetleaf (Abutilon theophrasti)
In short: as §2

chickweed [7] = test: Test Example 4: herbicidal effect by soil treatment (Table 19, symbol P); assay type: in vivo, common chickweed (Stellaria media)
In short: as §1

redroot pigweed [8] = test: Test Example 4: herbicidal effect by soil treatment (Table 19, symbol N); assay type: in vivo, redroot pigweed (Amaranthus retroflexus)
In short: as §1

rice flat sedge = test: Test Example 3: herbicidal effect by foliage application, Wagner pot (Table 18, symbol E); assay type: in vivo, rice flat sedge (Cyperus iria)
In short: (§3)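 Plants were sown in alluvial soil held under 0.1–0.5 cm standing water and grown 14 days in a greenhouse at 25–30 °C. An emulsifiable formulation, water-diluted to the set dose, was then sprayed onto the foliage, and effects were scored three weeks later using previously defined criteria.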

blackgrass [9] = test: Test Example 4: herbicidal effect by soil treatment (Table 19, symbol J); assay type: in vivo, blackgrass (Alopecurus myosuroides)
In short: as §1

windgrass [10] = test: Test Example 4: herbicidal effect by soil treatment (Table 19, symbol L); assay type: in vivo, windgrass (Apera spica-venti)
In short: as §1

Chinese sprangletop = test: Test Example 3: herbicidal effect by foliage application, Wagner pot (Table 18, symbol D); assay type: in vivo, chinese sprangletop (Leptochloa chinensis)
In short: as §3

lambsquarters [11] = test: Test Example 5: herbicidal effect by foliage application, plastic box (Table 20, symbol O); assay type: in vivo, lambsquarters (Chenopodium album)
In short: as §2

southern crabgrass [12] = test: Test Example 4: herbicidal effect by soil treatment (Table 19, symbol F); assay type: in vivo, southern crabgrass (Digitaria ciliaris)
In short: as §1

velvetleaf [13] = test: Test Example 4: herbicidal effect by soil treatment (Table 19, symbol M); assay type: in vivo, velvetleaf (Abutilon theophrasti)
In short: as §1

wild oat [14] = test: Test Example 4: herbicidal effect by soil treatment (Table 19, symbol I); assay type: in vivo, wild oat (Avena fatua)
In short: as §1

Italian ryegrass [15] = test: Test Example 5: herbicidal effect by foliage application, plastic box (Table 20, symbol K); assay type: in vivo, Italian ryegrass (Lolium multiflorum)
In short: as §2

barnyard grass [16] = test: Test Example 4: herbicidal effect by soil treatment (Table 19, symbol H); assay type: in vivo, barnyard grass (Echinochloa crus-galli)
In short: as §1

barnyard grass [17] = test: Test Example 5: herbicidal effect by foliage application, plastic box (Table 20, symbol H); assay type: in vivo, barnyard grass (Echinochloa crus-galli)
In short: as §2

barnyard grass [18] = test: Test Example 3: herbicidal effect by foliage application, Wagner pot (Table 18, symbol H); assay type: in vivo, barnyard grass (Echinochloa crus-galli)
In short: as §3

chickweed [19] = test: Test Example 5: herbicidal effect by foliage application, plastic box (Table 20, symbol P); assay type: in vivo, common chickweed (Stellaria media)
In short: as §2

green foxtail [20] = test: Test Example 5: herbicidal effect by foliage application, plastic box (Table 20, symbol G); assay type: in vivo, green foxtail (Setaria viridis)
In short: as §2

green foxtail [21] = test: Test Example 4: herbicidal effect by soil treatment (Table 19, symbol G); assay type: in vivo, green foxtail (Setaria viridis)
In short: as §1

wild oat [22] = test: Test Example 5: herbicidal effect by foliage application, plastic box (Table 20, symbol I); assay type: in vivo, wild oat (Avena fatua)
In short: as §2

windgrass [23] = test: Test Example 5: herbicidal effect by foliage application, plastic box (Table 20, symbol L); assay type: in vivo, windgrass (Apera spica-venti)
In short: as §2

southern crabgrass [24] = test: Test Example 5: herbicidal effect by foliage application, plastic box (Table 20, symbol F); assay type: in vivo, southern crabgrass (Digitaria ciliaris)
In short: as §2

redroot pigweed [25] = test: Test Example 5: herbicidal effect by foliage application, plastic box (Table 20, symbol N); assay type: in vivo, redroot pigweed (Amaranthus retroflexus)
In short: as §2

[26] = amount of applied herbicide 320 g/ha
[27] = amount of applied herbicide 320 g/ha, foliage application after 14-day growth, evaluated three weeks after application
[28] = foliage application, AAH 80 g/ha, three weeks after application

Cc1nn(C)c(=O)c(-c2c(-c3ccc(OC(F)(F)F)cc3)sc3c(C)cccc23)c1O [4-130]
O: lambsquarters, herbicidal effect grade (lambsquarters [1]; [26]): 1 (Herbicidal rate of 5% or more and less than 20%)
K: Italian ryegrass, herbicidal effect grade (Italian ryegrass [2]; [26]): 0 (Herbicidal rate of 5% or less (almost no effect))
R: persian speedwell, herbicidal effect grade (persian speedwell [3]; [26]): 4 (Herbicidal rate of 70% or more and less than 90%)
Herbicidal effect by foliage application, R: persian speedwell (persian speedwell [4]; [27]): 5 (Herbicidal rate of 90% or more (almost completely withered))
Herbicidal effect by foliage application, J: blackgrass (blackgrass [5]; [27]): 3 (Herbicidal rate of 40% or more and less than 70%)
Herbicidal effect by foliage application, M: velvetleaf (velvetleaf [6]; [27]): 4 (Herbicidal rate of 70% or more and less than 90%)
P: chickweed, herbicidal effect grade (chickweed [7]; [26]): 1 (Herbicidal rate of 5% or more and less than 20%)
N: redroot pigweed, herbicidal effect grade (redroot pigweed [8]; [26]): 5 (Herbicidal rate of 90% or more (almost completely withered))
herbicidal effect on rice flat sedge (E) (rice flat sedge; 320 g/ha): 4 (Herbicidal rate of 70% or more and less than 90%)
J: blackgrass, herbicidal effect grade (blackgrass [9]; [26]): 0 (Herbicidal rate of 5% or less (almost no effect))
L: windgrass, herbicidal effect grade (windgrass [10]; [26]): 0 (Herbicidal rate of 5% or less (almost no effect))
herbicidal effect on Chinese sprangletop (D) (Chinese sprangletop; 320 g/ha): 0 (Herbicidal rate of 5% or less (almost no effect))
Herbicidal effect by foliage application, O: lambsquarters (lambsquarters [11]; [27]): 5 (Herbicidal rate of 90% or more (almost completely withered))
F: southern crabgrass, herbicidal effect grade (southern crabgrass [12]; [26]): 0 (Herbicidal rate of 5% or less (almost no effect))
M: velvetleaf, herbicidal effect grade (velvetleaf [13]; [26]): 2 (Herbicidal rate of 20% or more and less than 40%)
I: wild oat, herbicidal effect grade (wild oat [14]; [26]): 0 (Herbicidal rate of 5% or less (almost no effect))
Herbicidal effect by foliage application, K: Italian ryegrass (Italian ryegrass [15]; [27]): 3 (Herbicidal rate of 40% or more and less than 70%)
H: barnyard grass, herbicidal effect grade (barnyard grass [16]; [26]): 0 (Herbicidal rate of 5% or less (almost no effect))
Herbicidal effect by foliage application, H: barnyard grass (barnyard grass [17]; [27]): 0 (Herbicidal rate of 5% or less (almost no effect))
herbicidal effect on barnyard grass (H) (barnyard grass [18]; 320 g/ha): 3 (Herbicidal rate of 40% or more and less than 70%)
Herbicidal effect by foliage application, P: chickweed (chickweed [19]; [27]): 5 (Herbicidal rate of 90% or more (almost completely withered))
Herbicidal effect by foliage application, G: green foxtail (green foxtail [20]; [27]): 0 (Herbicidal rate of 5% or less (almost no effect))
G: green foxtail, herbicidal effect grade (green foxtail [21]; [26]): 0 (Herbicidal rate of 5% or less (almost no effect))
Herbicidal effect by foliage application, I: wild oat (wild oat [22]; [27]): 0 (Herbicidal rate of 5% or less (almost no effect))
Herbicidal effect by foliage application, L: windgrass (windgrass [23]; [27]): 3 (Herbicidal rate of 40% or more and less than 70%)
Herbicidal effect by foliage application, F: southern crabgrass (southern crabgrass [24]; [27]): 0 (Herbicidal rate of 5% or less (almost no effect))
Herbicidal effect by foliage application, N: redroot pigweed (redroot pigweed [25]; [27]): 5 (Herbicidal rate of 90% or more (almost completely withered))

COc1nn(C)c(=O)c(-c2c(-c3ccc(OC(F)(F)F)cc3)sc3ccccc23)c1O [1-162]
O: lambsquarters, herbicidal effect rating (lambsquarters [1]; AAH 80 g/ha): 4 (Herbicidal rate of 70% or more and less than 90%)
K: Italian ryegrass, herbicidal effect rating (Italian ryegrass [2]; AAH 80 g/ha): 0 (Herbicidal rate of 5% or less (almost no effect))
R: persian speedwell, herbicidal effect rating (persian speedwell [3]; AAH 80 g/ha): 0 (Herbicidal rate of 5% or less (almost no effect))
R: persian speedwell, herbicidal effect (persian speedwell [4]; [28]): 5 (Herbicidal rate of 90% or more (almost completely withered))
J: blackgrass, herbicidal effect (blackgrass [5]; [28]): 0 (Herbicidal rate of 5% or less (almost no effect))
M: velvetleaf, herbicidal effect (velvetleaf [6]; [28]): 3 (Herbicidal rate of 40% or more and less than 70%)
P: chickweed, herbicidal effect rating (chickweed [7]; AAH 80 g/ha): 2 (Herbicidal rate of 20% or more and less than 40%)
N: redroot pigweed, herbicidal effect rating (redroot pigweed [8]; AAH 80 g/ha): 1 (Herbicidal rate of 5% or more and less than 20%)
herbicidal effect on E (rice flat sedge), rating 0-5 (rice flat sedge; 80 g/ha): 5 (Herbicidal rate of 90% or more (almost completely withered))
J: blackgrass, herbicidal effect rating (blackgrass [9]; AAH 80 g/ha): 0 (Herbicidal rate of 5% or less (almost no effect))
L: windgrass, herbicidal effect rating (windgrass [10]; AAH 80 g/ha): 0 (Herbicidal rate of 5% or less (almost no effect))
herbicidal effect on D (Chinese sprangletop), rating 0-5 (Chinese sprangletop; 80 g/ha): 3 (Herbicidal rate of 40% or more and less than 70%)
O: lambsquarters, herbicidal effect (lambsquarters [11]; [28]): 3 (Herbicidal rate of 40% or more and less than 70%)
F: southern crabgrass, herbicidal effect rating (southern crabgrass [12]; AAH 80 g/ha): 0 (Herbicidal rate of 5% or less (almost no effect))
M: velvetleaf, herbicidal effect rating (velvetleaf [13]; AAH 80 g/ha): 0 (Herbicidal rate of 5% or less (almost no effect))
I: wild oat, herbicidal effect rating (wild oat [14]; AAH 80 g/ha): 0 (Herbicidal rate of 5% or less (almost no effect))
K: Italian ryegrass, herbicidal effect (Italian ryegrass [15]; [28]): 0 (Herbicidal rate of 5% or less (almost no effect))
H: barnyard grass, herbicidal effect rating (barnyard grass [16]; AAH 80 g/ha): 0 (Herbicidal rate of 5% or less (almost no effect))
H: barnyard grass, herbicidal effect (barnyard grass [17]; [28]): 0 (Herbicidal rate of 5% or less (almost no effect))
herbicidal effect on H (barnyard grass), rating 0-5 (barnyard grass [18]; 80 g/ha): 4 (Herbicidal rate of 70% or more and less than 90%)
P: chickweed, herbicidal effect (chickweed [19]; [28]): 5 (Herbicidal rate of 90% or more (almost completely withered))
G: green foxtail, herbicidal effect (green foxtail [20]; [28]): 0 (Herbicidal rate of 5% or less (almost no effect))
G: green foxtail, herbicidal effect rating (green foxtail [21]; AAH 80 g/ha): 0 (Herbicidal rate of 5% or less (almost no effect))
I: wild oat, herbicidal effect (wild oat [22]; [28]): 0 (Herbicidal rate of 5% or less (almost no effect))
L: windgrass, herbicidal effect (windgrass [23]; [28]): 0 (Herbicidal rate of 5% or less (almost no effect))
F: southern crabgrass, herbicidal effect (southern crabgrass [24]; [28]): 0 (Herbicidal rate of 5% or less (almost no effect))
N: redroot pigweed, herbicidal effect (redroot pigweed [25]; [28]): 4 (Herbicidal rate of 70% or more and less than 90%)
